Experimental data from publication PMC6273962, “Design, Synthesis and Structure-Activity Relationships of Novel Diaryl Urea Derivatives as Potential EGFR Inhibitors” (Molecules, 2016).

Target: EGFR (Homo sapiens, UniProt P00533)
Experiment: mobility shift kinase assay (Caliper, FAM-labeled peptide)
Assay type: biochemical

Sequence of EGFR (P00533 25-1210): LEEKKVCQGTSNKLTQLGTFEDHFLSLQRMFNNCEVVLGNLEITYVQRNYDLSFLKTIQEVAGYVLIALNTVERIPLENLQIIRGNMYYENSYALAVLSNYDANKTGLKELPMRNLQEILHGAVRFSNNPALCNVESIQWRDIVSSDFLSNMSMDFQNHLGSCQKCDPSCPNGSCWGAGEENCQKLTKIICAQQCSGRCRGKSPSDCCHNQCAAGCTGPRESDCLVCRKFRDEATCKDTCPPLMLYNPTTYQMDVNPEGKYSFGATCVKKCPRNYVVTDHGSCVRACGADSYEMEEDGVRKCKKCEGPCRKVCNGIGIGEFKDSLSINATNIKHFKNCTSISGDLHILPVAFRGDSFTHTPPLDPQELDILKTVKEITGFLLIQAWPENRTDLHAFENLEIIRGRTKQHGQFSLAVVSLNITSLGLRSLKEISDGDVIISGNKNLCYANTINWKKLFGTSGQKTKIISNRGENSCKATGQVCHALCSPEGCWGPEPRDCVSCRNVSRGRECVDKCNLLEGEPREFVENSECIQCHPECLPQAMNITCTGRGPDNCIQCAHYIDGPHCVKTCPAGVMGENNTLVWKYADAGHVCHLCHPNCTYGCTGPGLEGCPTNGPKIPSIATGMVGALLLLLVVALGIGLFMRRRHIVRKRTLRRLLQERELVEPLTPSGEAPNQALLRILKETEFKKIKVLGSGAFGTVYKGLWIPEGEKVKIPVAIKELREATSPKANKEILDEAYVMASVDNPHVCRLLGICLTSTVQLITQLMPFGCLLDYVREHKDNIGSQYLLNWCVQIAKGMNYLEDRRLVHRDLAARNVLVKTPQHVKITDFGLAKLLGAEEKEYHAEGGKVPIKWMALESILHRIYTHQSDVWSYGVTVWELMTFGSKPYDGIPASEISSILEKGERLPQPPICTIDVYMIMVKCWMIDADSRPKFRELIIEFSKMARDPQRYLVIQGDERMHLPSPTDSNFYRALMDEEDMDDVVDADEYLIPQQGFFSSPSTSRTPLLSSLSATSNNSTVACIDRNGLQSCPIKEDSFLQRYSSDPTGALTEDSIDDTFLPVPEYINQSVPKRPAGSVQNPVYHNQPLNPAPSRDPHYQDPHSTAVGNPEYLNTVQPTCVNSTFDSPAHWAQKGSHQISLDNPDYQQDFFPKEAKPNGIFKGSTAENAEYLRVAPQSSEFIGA

SMILES: Cc1cccc(Cl)c1NC(=O)Nc1ccc(-c2nc(NCCN(C)C)c3ccccc3n2)cc1 [5a, 1-(2-Chloro-6-methylphenyl)-3-(4-(4-((2-(dimethylamino)ethyl)amino)quinazolin-2-yl)phenyl)urea]
- IC50: 56 nM
